Measured values: PubChem BioAssay AID743417 (Broad Institute, 2014)
Records with an inconclusive call do not appear. Active and inactive are the calls of the source.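 The calls were made as follows: active = compounds lowering the luciferase signal with a fitted half-maximal dose at most twice their top valid dose (cut at about 30 µM in these data); inconclusive = flat fits with moderate signal loss, or poor fits; inactive = the rest.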

These molecules were tested on Clone20 osteoblast Shn3 3'UTR firefly luciferase, 24 h (assay: Schnurri-3 3'UTR-luciferase signal suppressors – cell-based, Clone20 osteoblasts, luminescence, dry powder, set 2, dose response (AID 743417)).

Row | SMILES | AC50
1 | Oc1cc(-c2ccncc2)cc2cccnc12 | 5400 nM
2 | COc1ccc(NC(=O)COc2ccc(N(C)S(=O)(=O)c3ccc(Cl)cc3)cc2)cc1OC | 1350 nM
3 | Cc1[nH]nc2ccc(-c3cncc(OC[C@@H](N)Cc4c[nH]c5ccccc45)c3)cc12 | 1770 nM
4 | COc1ccc(CNC(=O)c2cccc3c(-c4cccnc4)coc23)cc1OC | 900 nM
5 | Oc1ccc(-c2csc(Nc3cccc4ccccc34)n2)cc1O | 1580 nM
6 | CCOC(=O)Cn1c(S(=O)(=O)Cc2ccccc2Cl)nc(-c2ccccc2)c1-c1ccccc1 | 9290 nM
7 | COc1ccc(C)cc1NS(=O)(=O)c1ccc(-c2cnc(C3CC3)o2)cc1 | 3760 nM
8 | Oc1ccccc1Nc1nc(NCc2ccccc2)c2ccccc2n1 | 10600 nM
9 | Cc1cccc(Nc2nc(NCc3ccco3)c3ccccc3n2)c1 | 2050 nM
10 | COc1ccc(CCNc2cc(N3CCN(C(=O)c4ccccc4F)CC3)ccc2[N+](=O)[O-])cc1OC | 1260 nM
11 | O=C(Nc1ccc(F)cc1)Nc1cc(OCC(F)(F)F)cc(OCC(F)(F)F)c1 | 2460 nM
12 | CCCCNS(=O)(=O)c1ccc(S(=O)(=O)NCc2ccncc2)cc1 | 2400 nM
13 | O=S(=O)(Nc1cccc2ncccc12)c1cccs1 | 4300 nM
14 | COc1cc(NS(C)(=O)=O)ccc1Nc1c2ccccc2nc2ccccc12 | 1320 nM
15 | COc1cc2nc(N3CCN(c4cc(C)ccc4C)CC3)nc(N)c2cc1OC | 5440 nM
16 | CCOc1ccccc1NC(=O)c1nc(S(=O)(=O)Cc2cccc(C)c2)ncc1Cl | 324 nM
17 | O=c1c2ccccc2nc2n1C(CSCc1ccc(Cl)cc1Cl)CS2 (centres undefined) | 1450 nM
18 | CN1CCN(Cc2nc3ccccc3c(=O)n2Cc2nc(-c3ccc4ccccc4c3)cs2)CC1 | 11000 nM
19 | CC(C)(C)c1ccc(-n2ncc3c2CCCC3NC(=O)C2(C(N)=O)CC2)cc1 (centres undefined) | 589 nM
20 | COc1cccc(OCCn2cc(C(C)=O)c3ccccc32)c1 | 1850 nM
21 | O=C(c1nnsc1S(=O)c1ccc(Cl)cc1)N1CCOCC1 (centres undefined) | 930 nM
22 | OC1(c2cccc(C(F)(F)F)c2)CCN(c2ncnc3c2[nH]c2ccc(F)cc23)CC1 | 1870 nM

Row | SMILES | AC50
23 | COc1ccc(-c2nc(CN3CCN(c4ncnc5ccccc45)CC3)c(C)o2)c(OC)c1 | 6380 nM
24 | COc1ccc(-c2coc3c(C(=O)NCc4ccc(OC)c(OC)c4)cccc23)c(C)c1 | 722 nM
25 | O=S(=O)(c1cc(F)ccc1F)N1CCN(c2ncnc3ccccc23)CC1 | 1850 nM
26 | CCCOc1ccccc1C1CC(=O)Nc2cc3c(cc21)OCO3 (centres undefined) | 5720 nM
27 | CCN(CC)C(=S)Sc1c(-c2ccccc2)c2cc(Cl)ccc2[nH]c1=O | 27000 nM
28 | O=C(Nc1ccc([N+](=O)[O-])cc1Cl)c1cc(Cl)ccc1O | 3000 nM
29 | CCOC(=O)c1cn(CC(=O)Nc2cccc(Cl)c2C)nn1 | 4650 nM
30 | COc1cc(C)c(NC(=O)COc2cccc3c2OC(C)(C)C3)cc1OC | 7060 nM
31 | S=C(NCc1ccc(Cl)cc1)Nc1ccncc1 | 1500 nM
32 | Cc1ccc(N/C(N)=N/c2nc(C)cc(N3CCCCC3)n2)c(C)c1 | 891 nM
33 | COc1ccc(Nc2nc(N3CCCC3)c3ccccc3n2)cc1 | 3670 nM
34 | O=C1S/C(=C\c2ccc(N3CCOCC3)o2)C(=O)N1Cc1c(F)cccc1Cl | 6720 nM
35 | Cc1cc(NNC(=O)c2cccc(C(F)(F)F)c2)nc2c1c(C)nn2C | 2430 nM
36 | CC1(C)CC2CC(C)(CN2c2ncnc3ccc(Br)cc23)C1 (centres undefined) | 2110 nM
37 | COC(=O)c1ccccc1NC(=S)N(Cc1ccc2c(c1)OCO2)Cc1cc2cc(OC)ccc2[nH]c1=O | 10400 nM
38 | CC(=O)N(CCc1ccccc1)c1ccc2c(c1)C1CC2CCN1C(=O)OCc1ccccc1 (centres undefined) | 14400 nM
39 | COc1ccc(S(=O)(=O)N2CCN(c3cc(-c4ccccc4)nc4ncnn34)CC2)cc1 | 3890 nM
40 | C#CCn1c(=NC(=O)c2ccc(S(=O)(=O)N3CCc4ccccc4C3)cc2)sc2cc(S(N)(=O)=O)ccc21 | 1290 nM
41 | O=C(O)c1cccc(COc2ccccc2Cl)c1 | 1480 nM
42 | O=C(Nc1ccc(Br)cc1)c1ccc(F)c(S(=O)(=O)NCc2cccs2)c1 | 3050 nM
43 | Cc1cc(C)nc(SCC(=O)Nc2ccc(N3CCOCC3)c(Cl)c2)n1 | 1660 nM
44 | CC(=O)N1CCN(c2ccc(NC(=O)c3ccc([N+](=O)[O-])o3)cc2Cl)CC1 | 1080 nM

Row | SMILES | AC50
45 | c1ccc(Nc2nc(NCC3CCCO3)c3ccccc3n2)cc1 (centres undefined) | 21700 nM
46 | COc1ccc(CCNC(=O)CCC(=O)N2CCOc3ccc(Cl)cc32)cc1OC | > 70000 nM (inactive)
47 | CNS(=O)(=O)c1cccc(C(=O)OCc2cc(C(C)=O)ccc2OC)c1 | 11200 nM
48 | COc1ccc(NS(=O)(=O)c2ccc(C(=O)N3CCCCCC3)cc2)cc1 | 4510 nM
49 | COc1cc(NC(=O)NCc2ccco2)ccc1-c1ccc(NC(=O)NCc2ccco2)cc1OC | 3190 nM
50 | Oc1c(CN2CCN(c3ccc(F)cc3)CC2)cc(Cl)c2cccnc12 | 1320 nM
51 | Cn1nnnc1Sc1ncnc2scc(-c3ccc(Br)cc3)c12 | 334 nM
52 | CC(C)(C)n1nnnc1C(c1cccs1)N1CCCC2(CCCCC2)C1 (centres undefined) | 21700 nM
53 | O=C(/C=C/c1ccccc1)NC(NC(=S)Nc1ccc(Cl)cc1)C(Cl)(Cl)Cl (centres undefined) | 5130 nM
54 | Cc1sc2ncnc(N3CCN(S(=O)(=O)c4ccc(Br)cc4)CC3)c2c1C | 3590 nM
55 | O=C(Nc1cccc(C(F)(F)F)c1)Nc1ccc(N2CCCC2)c(S(=O)(=O)Nc2ccccc2Cl)c1 | 4420 nM
56 | CCOC(=O)c1cnc(-n2nc(C)cc2C)nc1NCc1ccc2c(c1)OCO2 | 8740 nM
57 | Cc1cc(Nc2cccc([N+](=O)[O-])c2)n2c(nc3ccccc32)c1C#N | 1900 nM
58 | Cc1nc2ccccc2cc1OCc1ccc(F)cc1 | 1700 nM
59 | CCOc1ccc(OCC(=O)N(CCC2=CCCCC2)c2c(N)n(Cc3ccccc3)c(=O)[nH]c2=O)cc1 | 8660 nM
60 | COc1ccc(CCNc2c(C)c(C)nc3ncnn23)cc1 | 565 nM
61 | CC(C)(C)C(=O)Nc1ccc(NC(=O)c2ccco2)nc1 | 1170 nM
62 | O=S(=O)(c1ccc(Cl)cc1)N1CCN(Cc2ccc(O)c3ncccc23)CC1 | 3010 nM
63 | Cc1cc2c(cc(C(=O)OC(C(=O)NC3CCCCC3)C(C)C)n2C)o1 (centres undefined) | 5900 nM
64 | CCc1ccccc1NC(=O)COC(=O)c1c(C)nsc1NC | 2480 nM
65 | CC1Cc2cc(S(=O)(=O)N3CCN(c4ccc(Cl)cc4)CC3)ccc2N1C(=O)C1CC1 (centres undefined) | 4260 nM
66 | O=[N+]([O-])/C=C/c1cn(Cc2ccc(Cl)cc2)c2ccccc12 | 8320 nM

Row | SMILES | AC50
67 | CC(C)(C)Nc1nc(-c2ccccn2)nc2ccccc12 | 1860 nM
68 | O=C(c1ccccc1)C(CN1CCCC1)c1ccccc1 (centres undefined) | 10700 nM
69 | O=C(Nc1ccc2nc3n(c(=O)c2c1)CCCCC3)c1c(F)ccc([N+](=O)[O-])c1F | 2300 nM
70 | Cc1cc(C)n2nc(SCc3cccc(S(=O)(=O)N(C)C)c3)nc2n1 | 14000 nM
71 | O=C(CN1C(=O)c2ccccc2S1(=O)=O)c1ccc2c(c1)OCCCO2 | 262 nM
72 | COc1ccccc1OCC(O)Cn1c(=N)n(Cc2ccccc2)c2ccccc21 (centres undefined) | 4010 nM
73 | CC1=NOC(=O)/C1=C\c1ccc(-c2ccccc2Br)o1 | 6480 nM
74 | C=C1CC(COc2cc(=O)oc3ccccc23)(c2ccccc2)OC1=O (centres undefined) | 3930 nM
75 | CCSc1nc2ccccc2n1C(=O)/C=C/c1ccc(OC)c(OC)c1 | 962 nM
76 | Cc1cc(C)n(-c2ccc3cccc(NS(C)(=O)=O)c3n2)n1 | 1320 nM
77 | COc1ccc(CC2(CO)CCN(CC3=Cc4cc(Cl)ccc4OC3)CC2)cc1 | 1330 nM
78 | COc1ccccc1/C=C/CN1CCC(n2nccc2NC(=O)CCc2ccccc2)CC1 | 1910 nM
79 | O=C(Cn1cnc2ccccc21)Nc1cccc(S(=O)(=O)N2CCCC2)c1 | 2770 nM
80 | CCC(=O)N1CCN(c2ccc(NC(=O)c3ccc([N+](=O)[O-])o3)cc2Cl)CC1 | 850 nM
81 | CC(=O)NC(c1ccc(C(C)C)cc1)c1ccc2cccnc2c1O (centres undefined) | 528 nM
82 | COc1ccc(-n2ncc3c(N4CCCCC4)ncnc32)cc1 | 2870 nM
83 | COc1ccccc1NC(=O)Cc1nn(C)c(=O)c2ccccc12 | 1970 nM
84 | O=C1C(Br)=C(c2ccccc2)C(c2ccccc2)=C1c1ccccc1 | 460 nM
85 | Cc1c(CCOC(=O)CC23CC4CC(CC(C4)C2)C3)sc[n+]1CC(=O)c1ccc(Br)cc1 | 12900 nM
86 | CC[C@@H](C(=O)[C@@H](C)[C@@H](O)[C@H](C)CCc1ccc(C)c(O)c1C(=O)O)[C@H]1O[C@](CC)([C@H]2CC[C@](O)(CC)[C@H](C)O2)C[C@@H]1C | 7930 nM
87 | CC12CC(O)C3c4ccc(O)cc4CCC3C1CCC2=O (centres undefined) | > 70000 nM (inactive)
88 | COc1ccc(C[C@H]2NC[C@H](O)[C@H]2OC(C)=O)cc1 | 882 nM

Row | SMILES | AC50
89 | CC(C)c1ccc(NC(=O)Nc2nc(C(N)c3ccccc3)cs2)cc1 (centres undefined) | 2480 nM
90 | Cc1cc(Nc2cccc(Cl)c2)nc(NCc2ccccc2)n1 | 1640 nM
91 | C=C1C(=O)OC2CC1C(OC(C)=O)CC(C)=CCCC(C)=CCCC2(C)O (centres undefined) | 910 nM
92 | O=C1NC2C(=CC(O)C(O)C2O)c2cc3c(c(O)c21)OCO3 (centres undefined) | < 260 nM
93 | CC(=O)OC[C@]12CC[C@H]3[C@@](C)(CC[C@H]4C(C)(C)CCC[C@]34C)[C@@H]1CC(C1=CC(=O)OC1O)O2 (some centres undefined) | 634 nM
94 | O=C(Nc1ccccc1)Nc1cc(OCC(F)(F)F)cc(OCC(F)(F)F)c1 | 6400 nM
95 | Fc1ccc(C(OCCN2CCN(CCCc3ccccc3)CC2)c2ccc(F)cc2)cc1 | 6170 nM
96 | COc1ccccc1NC(=O)Nc1nc(C(N)Cc2ccc(C(F)(F)F)cc2)cs1 (centres undefined) | 10300 nM
97 | CCOC(=O)N1CCN(C(=O)c2ccc(Cn3c(=S)[nH]c4ccc(Br)cc4c3=O)cc2)CC1 | 1250 nM
98 | C[C@H]1CCC/C=C/[C@@H]2C[C@H](O)C[C@H]2[C@@H](O)/C=C/C(=O)O1 | 2170 nM
99 | COc1cc(OC)c(OC)cc1/C=C1\CC(C)C/C(=C\c2cc(OC)c(OC)cc2OC)C1=O (centres undefined) | 3220 nM
100 | Oc1c(C(Nc2ccccn2)c2ccccn2)ccc2cccnc12 (centres undefined) | 4360 nM
101 | Cc1nnc(NC(=O)c2nc(S(=O)(=O)Cc3ccccc3)ncc2Cl)s1 | 1340 nM
102 | CCc1c(C)nc2cc(-c3ccc(OC)c(OC)c3)nn2c1NCC1CC1 | 5110 nM
103 | Cc1nn(C)c(C(=O)NCc2ccc(Cl)cc2)c1Cl | 1740 nM
104 | Cc1ccc(Cn2ccc(NC(=O)c3nn(C)cc3[N+](=O)[O-])n2)cc1 | 4090 nM
105 | c1ccc(CNc2ncnc3scc(-c4cccs4)c23)nc1 | 3590 nM
106 | CCCCCn1c(=N)n(CC(O)COc2ccccc2OC)c2ccccc21 (centres undefined) | 2120 nM
107 | CC(O)(c1ccncc1)c1nc(-c2cccc(C(F)(F)F)c2)cs1 (centres undefined) | 5340 nM
108 | Cc1cc(C)c(S(=O)(=O)N2Cc3ccccc3-n3nncc3C2)c(C)c1 | 4360 nM
109 | CN(C)CC(C(=O)Cc1ccccc1)c1ccccc1 (centres undefined) | 7810 nM
